# Test results published in patent publication US8673816B2, “Surfactants in agrochemical formulations” (Croda, Inc., priority 2009, dated 2014).
# Tested on: oil seed rape plants (Brassica napus)
# Assay: Greenhouse trial of surfactants as adjuvants for Glyphosate
# Type: in vivo
# Conditions: for % control: fresh weight vs untreated controls
# Source text: A greenhouse trial was run to evaluate the effectiveness of the surfactants of the invention as adjuvants for Glyphosate in controlling the growth of (non-roundup ready) oil seed rape plants (Brassica napus). The trial used surfactant of the invention (SE1) and control adjuvant (FAE) at 3 rates, with 3 rates of glyphosate application, and controls including 3 glyphosate rates without surfactant, all grown in randomised blocks. 10 replications were used for each application, with 1 pot (7×7×8 cm) per plot and at least 4 plants per pot, in Levington M2 medium. The greenhouse conditions of temperature and humidity were recorded and watering was carried out by capillary matting. Additional lighting was provided over natural daylight. The glyphosate treatments were carried out using a pre-calibrated Mardrive greenhouse cabinet sprayer at a volume rate of about 200 I.ha^−1. […]
# The type and application rate (Rate in g.ha^−1) of nominally 100% adjuvant, the application rate (Rate in g.ha^−1 active) of glyphosate, the glyphosate to adjuvant weight ratio (G:A) applied to the test plants and the visual assessment (%), and the % control are set out in Table AEA1 below.
# [1] = 28 d, glyphosate 125 g.ha^−1, no adjuvant
# [2] = 28 d, glyphosate 250 g.ha^−1, no adjuvant
# [3] = 28 d, glyphosate 500 g.ha^−1, no adjuvant
smiles,measurement,setting,value
"O=C(O)CNCP(=O)(O)O [Glyphosate, N-phosphonomethyl glycine]",% damage,"15 d, glyphosate 125 g.ha^−1, no adjuvant",0%
same,% damage,"15 d, glyphosate 250 g.ha^−1, no adjuvant",1.5%
same,% damage,"15 d, glyphosate 500 g.ha^−1, no adjuvant",11%
same,% damage,"21 d, glyphosate 125 g.ha^−1, no adjuvant",5%
same,% damage,"21 d, glyphosate 250 g.ha^−1, no adjuvant",5%
same,% damage,"21 d, glyphosate 500 g.ha^−1, no adjuvant",33%
same,% control,[1],0.2%
same,% control,[2],−6.4%
same,% control,[3],49.5%
same,% damage,[1],0%
same,% damage,[2],0%
same,% damage,[3],52%
